“Also recorded” adds a separate entry of the source.
Key:
[1] = tested on: miR-21; experiment: miR-21 expression in HeLa cells (qRT-PCR); type: cell-based, human; conditions: 50 μM, 6 hours
Experimental: Total RNA was extracted using the Direct-zol RNA MiniPrep kit (Zymo Research) with on-column DNase treatment, according to the manufacturer's instructions. Reverse transcription was carried out with SuperScript VILO cDNA Synthesis Kit (Life Technologies) and the cDNA samples were analyzed by qRT-PCR using PowerUp SYBR Green Master Mix (Thermo Fisher Scientific). For miR-21 expression analysis total RNA was retrotranscribed using miRCURY® LNA® RT Kit (Qiagen) and the cDNA was analyzed by using miRCURY® LNA® miRNA PCR Assay (Qiagen). The oligonucleotides used are the following: GAPDH_FW […]; GAPDH_REV […]; ATP5O_FW […]; ATP5O_REV […]; hsa-miR-21-5p miRCURY LNA miRNA PCR Assay (YP00204230); U6 snRNA (v2) miRCURY LNA miRNA PCR Assay (YP02119464).

[2] = tested on: A2780; experiment: Antiproliferative effect against A2780 (GI50); type: cell-based; conditions: Homo sapiens, 72 hours of treatment, cell count
Experimental: (§1) SKOV-3, A2780 and A2780 CIS were cultured and maintained, as previously described,[50] at 37 °C in RPMI 1640 medium (Euroclone) supplemented with 10% fetal bovine serum (FBS; Euroclone), L-glutamine and penicillin/streptomycin (SIGMA-ALDRICH). OVCA433, HEK-293T, HeLa, HCCLM3, SK-Hep-1, MCF-7, A549 and HCT-116 cells were maintained in DMEM medium (Euroclone) containing 10% FBS (Euroclone), L-glutamine and penicillin/streptomycin (SIGMA-ALDRICH). Wi-38 cells were cultured in DMEM medium (Euroclone) supplemented with 10% FBS (Euroclone), L-glutamine and penicillin/streptomycin (SIGMA-ALDRICH), and 1% non-essential amino acids (NEAA; Euroclone). The cultures were maintained in a constant temperature incubator at 37 °C with 5% CO2. […] Once cell adhesion had been promoted, the compounds were added to the culture medium. After 72 hours of treatment, the cells were counted, and the data analyzed by linear regression. Each experiment was carried out three times in triplicate and three separate cell counts were made for each sample. […] Afterwards, the concentration range was narrowed to the relative value obtained in the first evaluation in order to obtain an accurate value.

[3] = tested on: SKOV-3 cell line; experiment: Antiproliferative effect against the SKOV-3 cell line (GI50, cell count); type: cell-based, human
Experimental: as §1

[4] = tested on: KO TRBP SK-Hep-1 cells; experiment: Antiproliferative effect on KO TRBP SK-Hep-1 cells (CCK-8); type: cell-based, human; conditions: 48 hours
Experimental: HCCLM3 and SK-Hep-1 cells were seeded into 96-well plates at a density of 10 000 cells per well and allowed to adhere overnight. Subsequently, the cells were treated with the following substances: 0.1% DMSO as the negative control, various concentrations of the test compounds, and 125 μM enoxacin as the positive control. After 48 h of incubation, the original culture medium was removed, and the cells were washed twice with PBS. Then, 100 μL of DMEM culture medium containing 10% CCK-8 (Bimake, USA) was added to each well. The plates were incubated for 30 minutes at 37 °C. To determine the […], measurements were taken at a wavelength of 450 nm using a Varioskan from Thermo Fisher Scientific.

[5] = tested on: cisplatin-resistant A2780 cells (A2780 CIS); experiment: Viable cells of cisplatin-resistant A2780 (A2780 CIS) treated with 33, cisplatin or both; type: cell-based, human; conditions: 48 hours
Experimental: (§2) A2780 and SKOV-3 cells were treated with 50 μM of 33 for 72 h before RNA and protein extraction and expression analyses. A2780 and A2780 CIS were treated with 33 (30 μM) and/or cisplatin (1 μM, Sigma-Aldrich) for 48 hours while MCF-7, A549 and HCT-116 were treated with 33 (30 μM) for 72 hours. Total cell number and viability have been assessed using Trypan Blue Solution (Thermo Fisher Scientific) and Countess™ 3 Automated Cell Counter (Thermo Fisher Scientific).

[6] = target: T1, TRBP (Homo sapiens, UniProt Q15633); experiment: Surface plasmon resonance (SPR) assay on TRBP; type: binding; conditions: versus enoxacin
T1 sequence (Q15633 1-366): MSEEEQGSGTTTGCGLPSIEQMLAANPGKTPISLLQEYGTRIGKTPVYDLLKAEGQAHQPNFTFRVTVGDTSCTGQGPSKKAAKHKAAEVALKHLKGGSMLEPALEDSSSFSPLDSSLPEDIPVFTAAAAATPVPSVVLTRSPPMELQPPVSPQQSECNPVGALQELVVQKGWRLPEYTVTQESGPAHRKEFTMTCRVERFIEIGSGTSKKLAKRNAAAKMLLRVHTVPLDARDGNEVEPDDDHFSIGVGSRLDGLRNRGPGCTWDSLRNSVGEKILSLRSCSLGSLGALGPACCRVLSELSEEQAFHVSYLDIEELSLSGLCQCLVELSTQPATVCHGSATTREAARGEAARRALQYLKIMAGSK
Experimental: Following the manufacturer's instructions, the BIAcore Sensor Chip (CM5) underwent initial activation using a mixture of NHS and EDC. Subsequently, recombinant human TRBP proteins at a concentration of 20 μg mL^−1 (in 10 mM sodium acetate, pH 4.0) were injected over the CM5 chip. After reaching a coupling level of 12 000 RU, a 1 M ethanolamine hydrochloride was injected to block the chip, preventing nonspecific binding. All the compounds were diluted in HBS-EP buffer (10 mM HEPES, pH 7.4, 3 mM EDTA, 150 mM NaCl, and 0.005% surfactant P-20) with 1% DMSO. Samples were injected at a rate of 10 μL min^−1 for 120 seconds, followed by a dissociation phase of 90 seconds. After each cycle, a 50% DMSO solution was used to regenerate the chip surface and restore the sensorgram baseline. Binding analysis was performed using BIA evaluation version 3.2 software, determining the […] (KD).

[7] = tested on: MCF-7 (breast cancer); experiment: Proliferation of MCF-7 cells (trypan blue count); type: cell-based, human; conditions: 30 μM, 72 hours
Experimental: as §2

[8] = tested on: distinct OC cell lines; experiment: Anti-OC activity against distinct cell lines (GI50 range); type: cell-based; conditions: Homo sapiens; range over the OC cell lines tested
Experimental: Once cell adhesion had been promoted, the compounds were added to the culture medium. After 72 hours of treatment, the cells were counted, and the data analyzed by linear regression. Each experiment was carried out three times in triplicate and three separate cell counts were made for each sample.
Afterwards, the concentration range was narrowed to the relative value obtained in the first evaluation in order to obtain an accurate value.

O=C(O)c1cn(C2CC2)c2cc(N3CCc4ccccc4C3)c(F)cc2c1=O [Compound 33, 1-Cyclopropyl-7-(3,4-dihydroisoquinolin-2(1H)-yl)-6-fluoro-4-oxo-1,4-dihydroquinoline-3-carboxylic acid]
miR-21 level in HeLa cells [1]: Upregulation of miR-21 | GI50 [2]: 18.1 ± 8.25 µM | GI50 ([3]; Homo sapiens, SK-OV-3, 72 h, 50% cell growth inhibition, 72 hours of treatment, cell count, ND = activity not dose dependent): 13.5 ± 1.45 µM | GI50 SKOV-3, fold lower than enoxacin ([3]; versus enoxacin): about 9 fold | antiproliferative effect on KO TRBP SK-Hep-1 cells ([4]; 30 μM): no antiproliferative effect | viability of KO TRBP SK-Hep-1 cells ([4]; 50 μM): not affecting | sensitivity of A2780 CIS and A2780 to 33 alone ([5]; 30 μM): equal sensitivity | effect of 33 in combination with cisplatin on A2780 CIS ([5]; 33 30 μM + cisplatin 1 μM): synergistic effect; also recorded: sensitized A2780 CIS to cisplatin | binding affinity for TRBP, fold stronger than enoxacin [6]: approximately 40 fold | effect on MCF-7 cell proliferation [7]: significant inhibitory effect on cell proliferation | GI50 [8]: 13.5 to 31 µM

Reference: publication PMC11467779, “New anti-ovarian cancer quinolone derivatives acting by modulating microRNA processing machinery” (RSC Medicinal Chemistry, 2024)
